Results reported in patent US20220144812A1, “QUINOLINE DERIVATIVES AND THEIR USE FOR THE TREATMENT OF CANCER” (Epizyme, Inc., priority 2019, published 2022).
Like-named read-outs stand apart in the source and are kept apart here.

Assays:
[1] = system: H3K18Ac in HB-CLS-2 cells; assay: H3K18AC in-cell western (ICW) assay; assay type: cell-based; details: H3K18Ac in-cell western, read-out: CREBBP ICW IC50
From the text: The following example describes methods and materials relating to an H3K18AC in-cell western assay. IC50 values (micromolar (μM)) are summarized in Table 1, Table 2, and Table 3 under the column labeled: “CREBBP ICW IC50 (micromolar).”
MATERIALS: HB-CLS-2 cell line, DMEM: Ham's F12 medium (1:1 mixture), penicillin-streptomycin, heat inactivated fetal bovine serum, D-PBS, Odyssey blocking buffer, 800CW goat anti-rabbit IgG (H+L) antibody, Licor Odyssey CLx Infrared Scanner, H3K18Ac rabbit monoclonal antibody. DRAQS fluorescent probe solution (5 mM), and 100% methanol were commercially available. HB-CLS-2 adherent cells were maintained in complete growth medium (DMEM: Ham's F12 supplemented with 10% v/v heat inactivated fetal bovine serum) and cultured at 37° C. under 5% CO2.
METHOD: Cell Treatment, ICW for detection of H3K18Ac and DNA content. HB-CLS-2 cells were seeded in assay medium (DMEM: Ham's F12 supplemented with 10% v/v heat inactivated fetal bovine serum and 1% Penicillin/Streptomycin) at a concentration of 80,000 cells per mL in a Poly-D-Lysine coated 384-well culture plates at 50 μL per well. Plates were incubated at room temperature for 30 minutes and then incubated at 37° C., 5% CO2 for additional 16-24 hours. Compounds and DMSO normalization were then added directly to the plates using a D300 Digital Dispenser and returned to the incubator at 37° C., 5% CO2 for 2 hrs. After the incubation, the contents of the plates were discarded into the appropriate waste stream and blotted on laboratory tissue to remove residual liquid. 90 μL per well of 100% ice cold methanol was added to the plates and incubated at room temperature for 15 minutes. Then methanol was then discarded into the appropriate waste stream and the plates again blotted on laboratory tissue to remove residual liquid. Plates were transferred to a Biotek 405 plate washer and washed 3 times with 100 μL per well of wash buffer (1X PBS containing 0.1% Triton X-100 (v/v)). Next, 50 μL per well of Odyssey blocking buffer with 0.1% Tween 20 (v/v) was added to each plate and incubated for 1 hour at room temperature. Blocking buffer was removed and 20 μL of primary antibody were added (α-H3K18Ac diluted 1:800 in Odyssey buffer with 0.1% Tween 20 (v/v)) and plates were incubated overnight (16 hours) at 4° C. Plates were washed 5 times with 100 μL per well of wash buffer. Next 20 μL per well of secondary antibody was added (1:400 800CW goat anti-rabbit IgG (H+L) antibody, 1:2000 DRAQ5 in Odyssey buffer with 0.1% Tween 20 (v/v)) and incubated for 1 hour at room temperature. The plates were washed 3 times with 100 μL per well wash buffer then 3 times with 100 μL per well of water. Plates were allowed to dry at room temperature then imaged on the Licor Odyssey CLx machine which measured integrated intensity at 700 nm and 800 nm wavelengths. Both 700 and 800 channels were scanned.

CREBBP (1084-1701) = target: T1, CREBBP (1084-1701) (Homo sapiens, UniProt Q92793); assay: Biochemical assay for CREBBP (1084-1701), SAMDI; details: SAMDI, read-out: CREBBP Biochemistry IC50
T1 construct: measured in the following biochemical assay using CREBBP (1084-1701); purchased
From the text: The following example describes materials and methods relating to a biochemical assay for CREBBP (1084-1701). IC50 values (micromolar (μM)) are summarized in Table 1, Table 2, and Table 3 under the column labeled: “CREBBP Biochemistry IC50 (micromolar).”
MATERIALS: Reagents 1M Tris pH 8.0, Tween 20 10%, DTT, bovine serum gelatin (BSG) 2%, Peptide #233 (biotin-H3 11-25, K14R, K23R), Acetyl-CoA, CREBBP (1084-1701), formic acid (100%), and sodium bicarbonate were commercially available.
METHODS: The effect of compounds was measured in the following biochemical assay using CREBBP (1084-1701). Enzyme mix 30 μL per well was added using a Multi-drop to wells of prepared Compound Stock plate. The enzyme was incubated in the Compound Stock plate for 30 minutes at room temperature. Substrate mix, 20 μL per well, was added to Compound Stock plate using a Multi-drop. The plate was covered and incubate 30 minutes at room temperature. The reaction was stopped with addition of 5 μL per well of 5% formic acid using a Multi-drop. The plate was Incubated for 30 minutes at room temperature. The reaction mixture was neutralized with addition of 5 μL per well of 10% sodium bicarbonate using a Multi-drop. The plate was Incubated for 35 minutes at room temperature. The reaction mixture was Transferred 2.5 μL per well to a SAMDI biochip. The plate was Incubated for 60 minutes at room temperature. The samples were washed, dried, and matrix applied to SAMDI biochip. The SAMDI biochip was then read on the mass spectrometer.

T1 sequence (Q92793 1084-1701): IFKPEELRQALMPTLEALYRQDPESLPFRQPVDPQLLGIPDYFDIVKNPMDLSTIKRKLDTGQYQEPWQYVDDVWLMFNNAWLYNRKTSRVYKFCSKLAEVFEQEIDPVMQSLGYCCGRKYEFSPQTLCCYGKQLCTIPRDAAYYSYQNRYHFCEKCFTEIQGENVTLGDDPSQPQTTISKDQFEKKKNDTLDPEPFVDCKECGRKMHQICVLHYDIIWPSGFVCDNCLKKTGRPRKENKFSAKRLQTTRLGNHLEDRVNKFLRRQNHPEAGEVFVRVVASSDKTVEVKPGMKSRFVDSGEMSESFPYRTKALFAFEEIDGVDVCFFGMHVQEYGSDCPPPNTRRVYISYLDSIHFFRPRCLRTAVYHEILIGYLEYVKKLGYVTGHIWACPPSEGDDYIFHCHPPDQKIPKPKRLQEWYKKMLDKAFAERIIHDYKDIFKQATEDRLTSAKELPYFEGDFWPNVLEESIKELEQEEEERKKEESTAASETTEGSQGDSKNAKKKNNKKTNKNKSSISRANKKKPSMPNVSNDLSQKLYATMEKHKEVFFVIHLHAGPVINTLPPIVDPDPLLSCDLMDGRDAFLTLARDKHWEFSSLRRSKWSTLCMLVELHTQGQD

SMILES	IC50 [1] [µM]	IC50 (CREBBP (1084-1701)) [µM]	IC50 ([1]; HB-CLS-2 cells) [µM]
CCn1ncc(CN(C)C(=O)c2cc(-c3ccccc3Cl)nc3ccc(Cl)cc23)c1C [Compound 95]	1.8	0.25	
CCn1ncc(CN(C)C(=O)c2cc(-c3ccccc3Cl)nc3cc(Cl)c(Cl)cc23)c1C [Compound 97]	1.9	0.47	
CCn1ncc(CN(C)C(=O)c2cc(-c3ccccc3OC)nc3ccc(Cl)cc23)c1C [Compound 98]	2	0.4	
CCn1ncc(CN(C)C(=O)c2cc(-c3cccc(Cl)c3)nc3ccc(C)cc23)c1C [Compound 126]	4.3	0.98	
CCn1ncc(CN(C)C(=O)c2cc(-c3ccccc3)nc3ccc(Cl)cc23)c1C [Compound 140]	6.1	3.9	
CCn1ncc(CN(C)C(=O)c2cc(-c3ccccc3)nc3ccc(C)cc23)c1C [Compound 150]	8.2	6.6	
CCn1ncc(CN(C)C(=O)c2nc(-c3cnn(C4CCNC4)c3)nc3ccc(Cl)cc23)c1C (centres unmarked) [Compound 206]		192	20
CCn1ncc(CN(C)C(=O)c2nc(-c3cnn(CCCO)c3)nc3ccc(Cl)cc23)c1C [Compound 212]		96	20
CCn1ncc(CN(C)C(=O)c2nc(-c3cnn(CCNC)c3)nc3ccc(Cl)cc23)c1C [Compound 213]		135	20
CCn1ncc(CN(C)C(=O)c2nc(Cc3ccccc3)nc3ccc(Cl)cc23)c1C [Compound 225]		96	20
CCc1onc(CN(C)C(=O)c2nc(-c3ccccc3Cl)nc3ccc(Cl)cc23)c1C [Compound 231]		76	20
CCn1ncc(CN(C)C(=O)c2nc(-c3ccc(OCCCN(C)C(=O)OC(C)(C)C)cc3)nc3ccc(Cl)cc23)c1C [Compound 242]		57	20
CCn1ncc(CN(C)C(=O)c2cc(-c3cn(CCCNC(=O)OC(C)(C)C)cn3)nc3ccc(Cl)cc23)c1C [Compound 243]		99	20
CCn1ncc(CN(C)C(=O)c2nc(-c3cnn(CCCNC)c3)nc3ccc(Cl)cc23)c1C [Compound 250]		121	20
CCn1ncc(CN(C)C(=O)c2nc(-c3cccc(Cl)c3Cl)nc3ccc(Cl)cc23)c1C [Compound 259]		0.0026	0.18
CCn1ncc(CN(C)C(=O)c2nc(-c3cccc(Cl)n3)nc3ccc(Cl)cc23)c1C [Compound 260]		1.7	3.6
CCn1ncc(CN(C)C(=O)c2nc(-c3ccccc3Cl)nc3ccc(COC)cc23)c1C [Compound 276]		0.62	1.5
Cc1c(CN(C)C(=O)c2nc(-c3ccccc3Cl)nc3ccc(Cl)cc23)cnn1C(C)C [Compound 279]		0.082	0.76
CCn1ncc(CN(C)C(=O)c2nc(-c3ccccc3Cl)nc3ccc(C#N)cc23)c1C [Compound 310]		48	
CCn1ncc(CN(C)C(=O)c2cc(-c3cccc(Cl)c3)nc3ccc(N)cc23)c1C [Compound 311]		18	
CCOc1ccc2nc(-c3cccc(Cl)c3)cc(C(=O)N(C)Cc3cnn(CC)c3C)c2c1 [Compound 319]		120	
CCn1ncc(CN(C)C(=O)c2cc(-c3ccc[nH]3)nc3ccc(Cl)cc23)c1C [Compound 320]		51	
CCn1ncc(CN(C)C(=O)c2cc(-c3ccccc3Cl)nc3cc(OC)ccc23)c1C [Compound 322]		134	
CCn1ncc(CN(C)C(=O)c2cc(-c3cccnc3)nc3ccc(Cl)cc23)c1C [Compound 325]		55	
CCn1ncc(CN(C)C(=O)c2cc(-c3ccccn3)nc3ccccc23)c1C [Compound 326]		40	

SMILES	IC50 [1] [µM]	IC50 (CREBBP (1084-1701)) [µM]	IC50 ([1]; HB-CLS-2 cells) [µM]
CCn1ncc(CN(C)C(=O)c2nc(-c3ccccn3)nc3cc(Cl)ccc23)c1C [Compound 327]		152	
CCc1ccc2nc(-c3cccc(Cl)c3)cc(C(=O)N(C)Cc3cnn(CC)c3C)c2c1 [Compound 328]		0.29	
CCn1ncc(CN(C)C(=O)c2cc(-c3cccc(C#N)c3)nc3ccc(Cl)cc23)c1C [Compound 332]		27	
CCn1ncc(CN(C)C(=O)c2nc(-c3cc(Cl)ccn3)nc3ccc(Cl)cc23)c1C [Compound 333]		3.9	
CCn1ncc(CN(C)C(=O)c2nc(-c3cnn(C)c3)nc3ccc(Cl)cc23)c1C [Compound 339]		29	
CCn1ncc(CN(C)C(=O)c2cc(-c3ccccc3Cl)nc3c(C)cccc23)c1C [Compound 340]		40	
CCn1ncc(CN(C)C(=O)c2cc(-c3cncc(Cl)c3)nc3ccc(Cl)cc23)c1C [Compound 341]		12	
CCn1ncc(CN(C)C(=O)c2cc(-c3ccccc3)nc3ccccc23)c1C [Compound 343]		176	
CCn1ncc(CN(C)C(=O)c2nc(-c3ccccc3Cl)nc3cc(Cl)ccc23)c1C [Compound 344]		45	
CCn1ncc(CN(C)C(=O)c2cc(-c3ncccc3OC)nc3ccc(Cl)cc23)c1C [Compound 345]		72	
CCn1ncc(CN(C)C(=O)c2nc(-c3ncccc3OC)nc3ccc(Cl)cc23)c1C [Compound 348]		21	
CCn1ncc(CN(C)C(=O)c2cc(-c3ccccc3OC)nc3ccccc23)c1C [Compound 351]		32	
CCn1ncc(CN(C)C(=O)c2cc(-c3cccc(Cl)c3)nc3ccccc23)c1C [Compound 352]		41	
CCn1ncc(CN(C)C(=O)c2cc(-c3cccc(C)c3)nc3ccccc23)c1C [Compound 353]		84	
CCn1ncc(CN(C)C(=O)c2cc(-c3cccc(Cl)c3)nc3ccccc23)c1C [Compound 354]		38	
CCn1ncc(CN(C)C(=O)c2nc(-c3ccc(OCCCN(C)C(=O)OC(C)(C)C)c(OC)c3)nc3ccc(Cl)cc23)c1C [Compound 355]		3.8	
CCn1ncc(CN(C)C(=O)c2cc(-c3cccnc3)nc3ccc(Cl)cc23)c1C [Compound 364]		34	
CCn1ncc(CN(C)C(=O)c2cc(-c3ccccc3Cl)nc3c(F)cccc23)c1C [Compound 365]		14	
CN(Cc1cnn2c1CCC2)C(=O)c1cc(-c2cccc(Cl)c2)nc2ccc(Cl)cc12 [Compound 367]		72	
CCn1ncc(CN(C)C(=O)c2cc(-c3cccc(Cl)c3)nc3ccc(F)cc23)c1C [Compound 368]		15	
CCn1ncc(CN(C)C(=O)c2nc(-c3ccccc3Cl)nc3ccc(C)cc23)c1C [Compound 370]		0.67	
CCn1ncc(CN(C)C(=O)c2cc(-c3ncccn3)nc3ccc(Cl)cc23)c1C [Compound 371]		25	
CCc1ccc2c(C(=O)N(C)Cc3cnn(CC)c3C)cc(-c3ccccc3Cl)nc2c1 [Compound 375]		102	
CCn1ncc(CN(C)C(=O)c2cc(-c3ccccc3Cl)nc3ccccc23)c1C [Compound 376]		32	
CCn1ncc(CN(C)C(=O)c2cc(-c3ccccc3F)nc3ccccc23)c1C [Compound 378]		48	
